The values that follow come from patent US10548856B2, “Compounds and methods for modulating serotonin receptors in the periphery” (Northeastern University, priority 2015, dated 2020).

Like-named read-outs stand apart in the source and are kept apart here.

For one data set, the target named is T1, Human 5-HT7 (Homo sapiens, UniProt P34969).
T1 construct: expressed in transfected cells; host or cells: HEK293
The experiment in a line: In vitro binding affinity to serotonin 5-HT7 receptors using HEK293 cells. An excerpt: 2015, 6, 1259-1270. The compounds are tertiary amines and available to bind 5-HT7 receptors both in the brain and in the periphery. Each of the compounds can be derivatized to a corresponding positively-charged quaternary amine, for example, by the addition of a third alkyl group, R3, to render it impermeable to the blood-brain barrier and specific for peripheral 5-HT7 receptors.

The next data set deals with DOI HTR. The experiment in a line: Attenuation of the DOI HTR. Type of data set: in vivo. The conditions noted are these: 5.6 mg/kg.
A short description of data set [1]: Plasma and brain concentrations after subcutaneous administration (LC-MS/MS). Type of data set: in vivo, C57Bl/6J mice. Particulars: for concentration at 30 min / concentration at 60 min / concentration at 90 min: male, C57Bl/6J, mouse, 3.0 mg/kg subcutaneous, mice, mean (SEM); for concentration at 30 min: 30 min after injection; for concentration at 60 min: 60 min after injection; for concentration at 90 min: 90 min after injection. On the procedure: At 30, 60, or 90 min later, mice were euthanized by rapid cervical dislocation and decapitation. Trunk blood was collected in pre-chilled, heparin-coated tubes. Brains were quickly excised and frozen in liquid nitrogen. Plasma was collected from blood after centrifugation for 5 min at 13,000 g. Whole brain samples were wrapped in foil, and brain and plasma samples were labeled and stored at −80° C. until liquid chromatography-mass spectrometry/mass spectrometry (LC-MS/MS) assays were performed. Frozen brain samples were weighed and homogenized in phosphate buffered saline (PBS), pH 7.4. After the first analysis, the extra brain homogenate was stored at −80° C. until they were thawed for a second, more dilute, analysis. Plasma samples were used directly upon arrival. The proteins from each plasma sample and a portion of each brain homogenate were immediately precipitated with 1:1 methanol:acetonitrile (4× starting volume) and internal standard ((−)-MBP^68) followed by centrifugation at 14,000 g for 5 minutes at 4° C. The resulting supernatants from each sample were dried under nitrogen. Each sample was reconstituted in methanol, vortexed, sonicated briefly, and centrifuged prior to LC-MS/MS analysis. Calibration curves were constructed from the ratios of the peak areas of 5-FPT versus (−)-MBP in extracted standards made in mouse plasma or homogenized mouse brain.
LC-MS/MS analysis was performed using an Agilent 1100 series HPLC and a Thermo Finnigan Quantum Ultra triple quad mass spectrometer. The mobile phases used were 0.1% formic acid in water (A) and 0.1% formic acid in methanol (B) in a 5 minute gradient. Samples of 10 μL each were injected onto a Phenomenex Gemini C18 column (2×50 mm, 5μ) with a C18 guard column. 5-FPT and its internal standard ((−)-MBP) were ionized in ESI+ and detected in SRM mode. Internal standards were used for quantification of the compound level per g tissue or per μL plasma. Four mice were included per group, but plasma levels from one mouse were not detectable due to low volume of blood collected.

The mark [2] stands for this setting: brain, read-out: Brain concentration.
Setting [3] is: plasma, read-out: Plasma concentration.

T1 sequence (P34969 1-445 isoform P34969-2): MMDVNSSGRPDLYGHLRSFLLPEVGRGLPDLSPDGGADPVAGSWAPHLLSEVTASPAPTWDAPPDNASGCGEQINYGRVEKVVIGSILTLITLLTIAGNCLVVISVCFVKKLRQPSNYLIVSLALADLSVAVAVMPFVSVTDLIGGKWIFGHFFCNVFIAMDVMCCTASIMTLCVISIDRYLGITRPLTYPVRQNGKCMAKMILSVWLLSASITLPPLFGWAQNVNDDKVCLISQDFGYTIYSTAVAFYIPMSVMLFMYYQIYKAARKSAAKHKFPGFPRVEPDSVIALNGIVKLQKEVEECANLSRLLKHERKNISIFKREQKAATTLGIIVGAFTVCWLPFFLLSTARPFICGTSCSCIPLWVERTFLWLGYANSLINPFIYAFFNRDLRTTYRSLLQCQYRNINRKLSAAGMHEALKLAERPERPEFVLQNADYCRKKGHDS

Regarding `CN(C)[C@H]1CCc2c(cccc2-c2ccccc2F)C1` [(S)-Methyl / Phenyl-2′-F], the affinity on Human 5-HT7, expressed as Ki, was 6 ± 0.7 nM.
`CN(C)C1CCc2c(cccc2-c2cc(Cl)cc(Cl)c2)C1` (racemic) [(R/S)-Methyl / Phenyl-3′,5′-Cl] yielded a Ki on Human 5-HT7 of 40 ± 60 nM.
For the compound `CN(C)C1CCc2c(cccc2OCc2ccccc2)C1` (racemic) [(R/S)-Methyl / O-Benzyl], the Ki on Human 5-HT7 was over 10000 nM.
Take `CN(C)[C@H]1CCc2c(cccc2-c2ccc(Cl)cc2)C1` [(S)-Methyl / Pheny-4′-Cl]: the Ki at Human 5-HT7 was 72 ± 5.8 nM.
Turning to `CN(C)C1CCc2c(cccc2-c2ccccc2F)C1` (single isomer, unassigned; (+)) [(+)-5-FPT, 5-(2′-fluorophenyl)-N,N-dimethyl-1,2,3,4-tetrahydronaphthalen-2-amine], in the data set with DOI HTR, the “Time for which attenuating effect on the DOI HTR remained significant” value is “up to 2 hrs”. Also, the “Block of the DOI HTR” value in the data set on DOI HTR (3 hrs. post-administration) is “did not block the DOI HTR”. For the same compound, the Blood-brain barrier crossing entry in data set [1] (30, 60 and 90 min after systemic administration) is recorded as “readily crosses the blood-brain barrier”. Besides, the “Clearance in the periphery (plasma relative to brain levels)” value in data set [1] (as soon as 30 min post-administration) is recorded as “rapidly cleared in the periphery”. Also, in data set [1] (setting [2]), the concentration at 30 min amounted to 1780 ng/g, the concentration at 60 min was determined as 2160 ng/g and the concentration at 90 min came to 1460 ng/g. In data set [1] (setting [3]), the concentration at 30 min turned out to be 114 ng/mL, the concentration at 60 min is 118 ng/mL and the concentration at 90 min stood at 70 ng/mL.
Compound `CN(C)C1CCc2c(cccc2C2CCCC2)C1` (racemic) [(R/S)-Methyl / Cyclopentyl] had a Ki on Human 5-HT7 of 240 ± 35 nM.
Same read-out and setting: the same measure for `CN(C)[C@H]1CCc2c(cccc2-c2cc(C(F)(F)F)cc(C(F)(F)F)c2)C1` [(S)-Methyl / Phenyl-3′,5′-CF3]: 910 ± 260 nM; for `CN(C)C1CCc2c(cccc2-c2cccc(Cl)c2)C1` (racemic) [(R/S)-Methyl / Phenyl-3′-Cl]: 18 ± 2.4 nM.
For `CN(C)C1CCc2c(cccc2-c2cc(F)cc(F)c2)C1` (racemic) [(R/S)-Methyl / Phenyl-3′,5′-F], the affinity at Human 5-HT7, expressed as Ki, was 180 ± 32 nM.
Same read-out and setting: the value for `CCCN(CCC)[C@@H]1CCc2c(cccc2-c2ccccc2F)C1` [(R)-Propyl / 2′-F-Phenyl] was 63 ± 2.7 nM; that for `CCCN(CCC)[C@@H]1CCc2c(cccc2-c2ccccc2)C1` [(R)-Propyl / Phenyl] was 180 ± 31 nM; that for `CN(C)[C@@H]1CCc2c(cccc2-c2ccccc2F)C1` [(R)-Methyl / Phenyl-2′-F] was 260 ± 53 nM.
On Human 5-HT7, `COc1cc(-c2ccccc2)c2c(c1OC)CC(N(C)C)CC2` (racemic) [(R/S)-Methyl / 7,8-diOMe-5-Phenyl] came in with a Ki of over 10000 nM.
In turn, `CCCN(CCC)[C@H]1CCc2c(cccc2-c2ccccc2F)C1` [(S)-Propyl / 2′-F-Phenyl] registered a Ki at Human 5-HT7 of 35 ± 5.2 nM.
Same read-out and setting: the value for `CN(C)[C@H]1CCc2c(cccc2-c2ccccc2)C1` [(S)-Methyl / Phenyl] was 9 ± 0.4 nM.
`CN(C)[C@@H]1CCc2c(cccc2-c2ccccc2Cl)C1` [(R)-Methyl / Phenyl-2′-Cl] came in with a Ki at Human 5-HT7 of 58 ± 12 nM.
Same read-out and setting: the same measure for `CN(C)C1CCc2c(cccc2-c2ccc(F)cc2Cl)C1` (racemic) [(R/S)-Methyl / Phenyl-2′-Cl-4′-F]: 30 ± 10 nM; for `CN(C)C1CCc2c(cccc2-c2cccc(C(F)(F)F)c2)C1` (racemic) [(R/S)-Methyl / Phenyl-3′-CF3]: 63 ± 6.6 nM; for `CN(C)C1CCc2c(cccc2-c2ccc(F)cc2)C1` (racemic) [(R/S)-Methyl / Phenyl-4′-F]: 120 ± 17 nM.
In the case of `CN(C)[C@@H]1CCc2c(cccc2-c2ccccc2)C1` [(R)-Methyl / Phenyl], the affinity at Human 5-HT7 corresponds to a Ki of 4400 ± 930 nM.
`CN(C)C1CCc2c(cccc2-c2cccc(F)c2)C1` (racemic) [(R/S)-Methyl / Phenyl-3′-F] gave a Ki at Human 5-HT7 of 34 ± 6.2 nM.
Regarding `CCCN(CCC)[C@H]1CCc2c(cccc2-c2ccccc2)C1` [(S)-Propyl / Phenyl], the Ki at Human 5-HT7 amounted to 83 ± 5.8 nM.
On the same count and under the same terms, the same measure for `COc1cccc(-c2cccc3c2CCC(N(C)C)C3)c1` (racemic) [(R/S)-Methyl / Phenyl-3′-OMe]: 37 ± 9 nM; for `CN(C)[C@H]1CCc2c(cccc2-c2ccccc2Cl)C1` [(S)-Methyl / Phenyl-2′-Cl]: 6 ± 0.6 nM.

By Ki is commonly meant a dissociation constant, usually derived from enzyme kinetics or from competition with a known ligand. Low values mean tighter binding, high ones weaker binding.
